Legend:
[1] = system: Collagen-Induced Arthritis (CIA); experiment: CIA-EE (Example 1): paw, knee and six-joint histopathology; type: in vivo, Male DBA/1O1aHsd mice; details: day 45, vs OA-EE placebo, FIG. 4
From the text: (§1) Male DBA/1O1aHsd mice (3.5-4 weeks of age) were randomized by weight and enrolled in the study after a three day quarantine in which animals were fed the AlN-93G diet with a modified base fat: 1 part flax seed oil (flax), 9 parts hydrogenated coconut oil (HCOC) and 21 parts high-oleic safflower oil (HO-SAFF). 15 animals were enrolled per study group, with the exception of the No Disease control that had 4 animals. Study groups consisted of:
(§2) The appropriate ethyl esters were blended into the base diet to provide approximately 2500 and 5000 mg/kg polyunsaturated fatty acid (PUFA) per day. The human equivalent doses (HED) were approximately 12 g/day and 22 g/day, respectively. The 2500 mg/kg EE diets contained the following fat blend: 1 part flax, 12 parts HCOC and 23 parts HO-SAFF. The 5000 mg/kg EE diets contained a fat blend consisting of: 1 part flax, 5 parts HCOC and 20 parts HO-SAFF. All study diets provided a total of 7% fat. Animals were fed study diets for approximately 30 days prior to the first collagen injection at day 0 and remained on the diets until study termination (day 45). Animals in the No Disease control and Dexamethasone groups were fed the diet containing OA-EE. Following a second collagen injection on day 21, arthritis severity was scored daily. Blood samples were collected at day 21 and day 45. Joints, 6 per an animal, were collected for histology and pathology on day 45.
Placebo-treated diseased animals had histopathology changes, consistent with those seen in type II collagen induced arthritis, in most joints, with scores ranging from normal to severe. Microscopic alteration included infiltration of synovium and periarticular tissue with neutrophils and mononuclear inflammatory cells (inflammation), marginal zone pannus and bone resorption and cartilage damage (proteoglycan loss, chondrocyte death and collagen matrix destruction). Four-paw, knee and joint parameters were assigned a quantitative score 0=normal, 1=minimal, 2=mild, 3=moderate, 4=marked, 5=severe and a total score was determined per animal.

[2] = system: Collagen-Induced Arthritis (CIA); experiment: Collagen-Induced Arthritis, ethyl esters (CIA-EE, Example 1): clinical arthritis severity and incidence; type: in vivo, Male DBA/1O1aHsd mice; details: for arthritis severity score as area under the curve (AUC): days 18-45, FIG. 2; for incidence of disease (clinical arthritis score greater than 0): day 45
From the text: The anti-arthritic activity of DHA, DPAn6, DHA/DPAn6 (DHA S-oil ratio) and DHA/EPA (fish oil ratio) ethyl esters (EE) in a chronic mouse model of inflammation, Collagen-Induced Arthritis (CIA), was studied.
as §1, §2
Data was analyzed and compared by one-way ANOVA using the Bonferroni post-test to compare treatment groups to respective placebo control and to make comparisons between treatment groups (GraphPad, Prism, Version 4.0). Effects were considered to be statistically significant at p<0.05.
Arthritis severity was assessed from day 18 to 45; a score of 0 represented an animal devoid of clinical arthritis symptoms and a score of 5 represented advanced clinical arthritis. Scores from 0-5 (most severe) were assigned to each digit on the fore and hind limbs based on erythema, swelling and mobility and the mean arthritis severity per animal was determined.
The incidence of disease was reduced in animals treated with DHA-EE (FIG. 3A/B). A clinical arthritis score greater than 0 was considered diseased. The incidence of disease at day 45 was 13% in animals treated with 2500 mg/kg DHA-EE, as compared to 100% disease incidence in OA-EE (placebo) control animals.

| SMILES | knee histopathology parameters ([1]; 2500 mg/kg) | paw histopathology parameters (inflammation, pannus, cartilage damage, bone damage) ([1]; 2500 mg/kg) | knee histopathology parameters ([1]; 5000 mg/kg) | paw histopathology parameters (inflammation, pannus, cartilage damage, bone damage) ([1]; 5000 mg/kg) | arthritis severity score as area under the curve (AUC) ([2]; 2500 mg/kg, vs 2500 mg/kg OA-EE (placebo) control) | arthritis severity score as area under the curve (AUC) ([2]; 5000 mg/kg, vs 5000 mg/kg OA-EE (placebo) control) | incidence of disease (clinical arthritis score greater than 0) ([2]; 2500 mg/kg, FIG. 3A) | incidence of disease (clinical arthritis score greater than 0) ([2]; positive control, 0.1 mg/kg) |
| --- | --- | --- | --- | --- | --- | --- | --- | --- |
| CCCCC/C=C\C/C=C\C/C=C\C/C=C\C/C=C\CCC(=O)OCC [DPAn6-EE, reference compound] | did not significantly improve | did not significantly affect | did not significantly improve | did not significantly affect | did not reduce arthritis | did not reduce arthritis | 100% | – |
| C[C@@H]1C[C@H]2[C@@H]3CCC4=CC(=O)C=C[C@]4(C)[C@@]3(F)[C@@H](O)C[C@]2(C)[C@@]1(O)C(=O)CO [Dexamethasone, reference compound] | – | – | – | – | – | – | – | 60% |

From patent US20130137767A1, “Methods and Compositions for Treating Arthritis with Docosahexaenoic Acid” (DSM IP ASSETS B.V., priority 2010, published 2013)
